Source: patent EP0293826A2, “Therapeutic and prophylactic application of sulfated polysaccharides against AIDS” (priority 1987, dated 1988)

tested on: HIV-1; assay: Inhibition of HIV-1 replication in MT-4 cells (trypan blue exclusion, day 5); type: cell-based; conditions: not given
Procedure: MT-4 cells were suspended at 5 x 10^s cells per ml and infected with HIV-1 at 1000 CCIDso per ml (1 CCIDso being the 50% cell culture infective dose). After 2 h-incubation at 37° C, 5 x 10^4 cells per 100 µl were brought into each well of a flat-bottomed 96-well plastic microtiter tray containing 100 µl of various dilutions of the test compounds. After 5 days incubation at 37° C, the number of viable cells was determined microscopically in an hemacytometer by trypan blue exclusion. Anti-HIV-1 activity of the compounds was also determined by monitoring viral antigen expression in HUT-78 cells at day 14 after infection, measured by indirect immunifluorescence, using a polyclonal antibody as probe.

Row | Molecule | concentration at which no anti-HIV-1 activity was shown [µg/mL]
1 | glucosamine-2-sulfate [glucosamine 2-sulfate] | > 125
2 | N[C@H]1C(O)O[C@H](COS(=O)(=O)O)[C@@H](O)[C@@H]1O (stereo partly shown) [glucosamine 6-sulfate, glucosamine-6-sulfate] | > 125
3 | N[C@H]1C(O)O[C@H](CO)[C@@H](O)[C@@H]1OS(=O)(=O)O (stereo partly shown) [glucosamine 3-sulfate, glucosamine-3-sulfate] | > 125
4 | glucosamine-2,3-disulfate [glucosamine 2,3-disulfate] | > 125

tested on: human immuno deficiency virus (HIV); assay: not given; conditions: cited from earlier work

Row | Molecule | concentration completely protecting ATH8 cells against the cytopathogenicity of HIV
5 | Cc1cn([C@H]2C[C@H](N=[N+]=[N-])[C@@H](CO)O2)c(=O)[nH]c1=O [AZT, 3 -azido-2',3 -dideoxythymidine] | 1-5 µ.M
6 | Cc1ccc(C(=O)Nc2ccc(S(=O)(=O)O)c3cc(S(=O)(=O)O)cc(S(=O)(=O)O)c23)cc1NC(=O)c1cccc(NC(=O)Nc2cccc(C(=O)Nc3cc(C(=O)Nc4ccc(S(=O)(=O)O)c5cc(S(=O)(=O)O)cc(S(=O)(=O)O)c45)ccc3C)c2)c1 [suramin] | 50 µg/mL
7 | Cc1cc(-c2ccc(/N=N/c3ccc4c(S(=O)(=O)O)cc(S(=O)(=O)O)c(N)c4c3O)c(C)c2)ccc1/N=N/c1ccc2c(S(=O)(=O)O)cc(S(=O)(=O)O)c(N)c2c1O [Evans Blue] | 25 µg/mL
